Measured values: patent US7230018B2, “Substituted propane-1,3-diamine derivatives and the pharmaceutical use thereof” (Gruenenthal GmbH, priority 2001, dated 2007)

tested on: phenylquinone-induced writhing in the mouse; assay: phenylquinone-induced writhing test in the mouse; type: in vivo; conditions: male NMRI mice, 10 mg/kg intravenously, phenylquinone intraperitoneally 10 minutes after test substance, writhing counted 5 to 20 minutes after phenylquinone, hydrochloride
Description: Testing of Analgesia in the Writhing Test in the Mouse
The investigation for analgesic activity was carried out in the phenylquinone-induced writhing in the mouse (modified by I. C. Hendershot and J. Forsaith (1959) J. Pharmacol. Exp. Ther. 125, 237-240). Male NMRI mice weighing 25 to 30 g were employed for this. Groups of 10 animals per substance dose received 0.3 ml/mouse of a 0.02% aqueous solution of phenylquinone (phenylbenzoquinone, Sigma, Deisenhofen; preparation of the solution with the addition of 5% ethanol and storage in a water bath at 45° C.) administered intraperitoneally 10 minutes after intravenous administration of the test substances. The animals were placed individually in observation cages. The number of pain-induced stretching movements (so-called writhing reactions=straightening of the body with stretching of the hind extremities) was counted by means of a push-button counter 5 to 20 minutes after the administration of phenylquinone. Animals which received only physiological saline solution were also run as a control. All the substances were tested in the standard dosage of 10 mg/kg. The percentage inhibition (% inhibition) of the writhing reaction by a substance was calculated according to the following formula: […]

Compound | % Inhibition of the writhing reaction (dosage in mg/kg intravenously)
Cc1ccccc1C(=O)NC1CCCCC1C(c1cccnc1)N(C)C.Cl (stereo not drawn) [Example 8, (anti,anti)-N-[2-(dimethylaminopyridin-3-ylmethyl)cyclohexyl]-2-methylbenzamide hydrochloride] | 40 (10) %
CC(=O)NC1CCCCC1C(c1cccnc1)N(C)C.Cl (stereo not drawn) [Example 10, (anti,anti)-N-[2-(dimethylaminopyridin-3-ylmethyl)cyclohexyl]acetamide hydrochloride] | 59 (10) %
CN(C)C(c1cccnc1)C1CCCCC1NC(=O)c1ccccc1F.Cl (stereo not drawn) [Example 6, (anti,anti)-N-[2-(dimethylaminopyridin-3-ylmethyl)cyclohexyl]-2-fluorobenzamide hydrochloride] | 62 (10) %
CN(C)C(c1cccnc1)C1CCCCC1NC(=O)c1ccccc1.Cl (stereo not drawn) [Example 5, (anti,anti)-N-[2-(dimethylaminopyridin-3-ylmethyl)cyclohexyl]-benzamide hydrochloride] | 49 (10) %
CC(=O)NC1CCCCC1C(c1cccnc1)N(C)C.Cl (stereo not drawn) [Example 9, (syn,syn)-N-[2-(dimethylaminopyridin-3-ylmethyl)cyclohexyl]acetamide hydrochloride] | 75 (10) %
CN(C)C(c1cccnc1)C1CCCCC1NC(=O)c1ccccc1Cl.Cl (stereo not drawn) [Example 7, (anti,anti)-2-chloro-N-[2-(dimethylaminopyridin-3-ylmethyl)cyclohexyl]benzamide hydrochloride] | 56 (10) %
CN(C)C(c1cccnc1)C1CCCCC1NC(=O)c1ccccc1F.Cl (stereo not drawn) [Example 2, (syn,syn)-N-[2-(dimethylaminopyridin-3-ylmethyl)cyclohexyl]-2-fluorobenzamide hydrochloride] | 67 (10) %
CN(C)C(c1cccnc1)C1CCCCC1NC(=O)c1ccccc1.Cl (stereo not drawn) [Example 1, (syn,syn)-N-[2-(dimethylaminopyridin-3-ylmethyl)cyclohexyl]benzamide hydrochloride] | 54 (10) %
CN(C)C(c1cccnc1)C1CCCCC1NC(=O)c1ccccc1Cl.Cl (stereo not drawn) [Example 3, (syn,syn)-2-chloro-N-[2-(dimethylaminopyridin-3-ylmethyl)cyclohexyl]-benzamide hydrochloride] | 85 (10) %
Cc1ccccc1C(=O)NC1CCCCC1C(c1cccnc1)N(C)C.Cl (stereo not drawn) [Example 4, (syn,syn)-N-[2-(dimethylaminopyridin-3-ylmethyl)cyclohexyl]-2-methylbenzamide hydrochloride] | 34 (10) %
